Reference: patent publication US7186731B2, “2-cyanopyrrolidinecarboxamide compound” (Astellas Pharma Inc., priority 2003, dated 2007)
Counter-ions that a name gives are not always drawn.

Target: T1, human plasma DPP-IV (Homo sapiens, UniProt P27487)
T1 construct: from tissue; host or cells: human plasma
Assay: Inhibition Test of Human Plasma DPP-IV
Type: biochemical
Conditions: substrate H-glycine-proline-AMC, 20 minutes incubation at room temperature, fluorescence
Experimental: Inhibition Test of Human Plasma DPP-IV
Briefly, 20 μL of human plasma were mixed with 20 μL of 80 mM MgCl2 in assay buffer (25 mM HEPES, 140 mM NaCl, 1% RIA-grade BSA, pH7.8), and were incubated in a room temperature for 60 minutes. Then the reaction was initiated by the addition of both 20 μL of test compounds and 20 μL of 0.2 mM substrate (H-glycine-proline-AMC; AMC is 7-amino-4-methylcoumarine), they were dissolved in the assay buffer.
After 20 minutes incubation in a room temperature (kept in the dark), fluorescence was measured (Excitation 380 nm, Emission 460 nm). A fluorescence-concentration curve of free AMC was obtained using AMC solution in the assay buffer with appropriate concentration. Plasma DPP-IV activities, with or without the test compounds, were expressed as the amount of product per minute per mL. The potency of the test compounds as DPP-IV inhibitor was expressed as IC50.

T1 sequence (P27487 39-766 limits assumed): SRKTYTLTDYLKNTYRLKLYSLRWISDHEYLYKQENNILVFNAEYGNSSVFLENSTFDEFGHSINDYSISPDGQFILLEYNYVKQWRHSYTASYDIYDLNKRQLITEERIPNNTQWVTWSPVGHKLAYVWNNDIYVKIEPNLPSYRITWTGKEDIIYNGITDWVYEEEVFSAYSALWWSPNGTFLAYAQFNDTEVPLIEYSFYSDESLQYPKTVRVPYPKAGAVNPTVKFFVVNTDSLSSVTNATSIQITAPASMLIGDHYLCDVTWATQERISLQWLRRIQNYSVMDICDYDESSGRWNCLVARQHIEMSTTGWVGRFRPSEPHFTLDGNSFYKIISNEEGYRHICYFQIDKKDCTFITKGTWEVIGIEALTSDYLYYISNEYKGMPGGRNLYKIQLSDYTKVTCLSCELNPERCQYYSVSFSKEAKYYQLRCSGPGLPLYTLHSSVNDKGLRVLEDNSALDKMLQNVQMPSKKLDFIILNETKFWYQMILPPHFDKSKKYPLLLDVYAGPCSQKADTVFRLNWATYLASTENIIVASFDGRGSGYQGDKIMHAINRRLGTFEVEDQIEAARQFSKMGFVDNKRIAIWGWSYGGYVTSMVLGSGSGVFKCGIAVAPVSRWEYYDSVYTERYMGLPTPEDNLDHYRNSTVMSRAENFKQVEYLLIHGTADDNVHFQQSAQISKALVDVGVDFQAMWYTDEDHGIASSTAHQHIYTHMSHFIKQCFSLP

Compound	IC50
CC1(NCC(=O)N2C[C@@H](F)C[C@H]2C#N)CCN(c2cnccn2)CC1 [Example 10-8, (2S,4S)-4-Fluoro-1-({[4-methyl-1-(2-pyrazinyl)-4-piperidinyl]amino}acetyl)-2-pyrrolidinecarbonitrile]	13 nM
N#C[C@@H]1CCCN1C(=O)[C@H]1N[C@@H]2C[C@H]1C[C@H]2OCCO [Example 25-3, (2S)-1-{[(1R,3S,4S,6R)-6-(2-hydroxyethoxy)-2-azabicyclo[2.2.1]hept-3-yl]carbonyl}-2-pyrrolidinecarbonitrile hydrochloride]	4.5 nM
CC1(NCC(=O)N2C[C@@H](F)C[C@H]2C#N)CCOCC1 [Example 7-12, (2S,4S)-4-Fluoro-1-{[(4-methyltetrahydro-2H-pyran-4-yl)amino]acetyl}-2-pyrrolidinecarbonitrile]	15 nM
N#C[C@@H]1CCCN1C(=O)[C@H]1N[C@@H]2C[C@H]1C[C@H]2O [Example 5-8, (2S)-1-{[(1R,3S,4S,6R)-6-hydroxy-2-azabicyclo[2.2.1]hept-3-yl]carbonyl}-2-pyrrolidinecarbonitrile hydrochloride]	8.7 nM
N#C[C@@H]1C[C@H](F)CN1C(=O)[C@H]1N[C@@H]2C[C@H]1C[C@H]2O [Example 45-3, (2S,4S)-4-Fluoro-1-{[(1R,3S,4S,6R)-6-hydroxy-2-azabicyclo[2.2.1]hept-3-yl]carbonyl}-2-pyrrolidinecarbonitrile hydrochloride]	4.7 nM
N#C[C@@H]1CCCN1C(=O)[C@H]1N[C@H]2CC[C@@H]1[C@H](O)C2 [Example 2-8, (2S)-1-{[(1S,3S,4S,5R)-5-hydroxy-2-azabicyclo[2.2.2]oct-3-yl]carbonyl}-2-pyrrolidinecarbonitrile hydrochloride]	8.5 nM

Test system: not given
Assay: not given
Conditions: not given

Compound	melting point
CC1(NCC(=O)N2C[C@@H](F)C[C@H]2C#N)CCN(c2cnccn2)CC1 [Example 10-8, (2S,4S)-4-Fluoro-1-({[4-methyl-1-(2-pyrazinyl)-4-piperidinyl]amino}acetyl)-2-pyrrolidinecarbonitrile]	166 to 167 °C
